Reference: US8623883B2, “4-phenylamino-quinazolin-6-yl-amides” (Warner-Lambert Company LLC, priority 2004, dated 2014)
In brackets after ≈: the same amount, converted by molar mass.

Assays:
[1] = target: ErbB4 (Homo sapiens, UniProt Q15303); test: ELISA-based erbB kinase assay (ErbB4); format: biochemical; conditions: GST-erbB4 cytoplasmic fusion protein, 20 uM ATP, poly-Glu-Tyr substrate
Source text: (§1) ErbB1, erbB2 and erbB4 cytoplasmic fusion proteins were made by cloning the erbB1 sequence (Met-668 to Ala1211), erbB2 (Ile-675 to Val-1256) and erbB4 sequence (Gly-259 to Gly-690) into the baculoviral vector pFastBac using Polymerase Chain Reaction (PCR). Proteins were expressed in Baculovirus-infected Sf9 insect cells as Glutathione S-Transferase (GST) fusion proteins. The proteins were purified by affinity chromatography using glutathione sepharose beads.
(§2) Inhibition of erbB tyrosine kinase activity was assessed using an ELISA-based receptor tyrosine kinase assay. Kinase reactions (50 mM HEPES, pH 7.4, 125 mM NaCl, 10 mM MgCl2, 100 μM sodium orthovanadate, 2 mM dithiothreitol, 20 uM ATP, test compound or vehicle control and 1-5 nM GST-erbB per 50 uL reaction) were run in 96-well plates coated with 0.25 mg/ml poly-Glu-Tyr (Sigma). The reactions were incubated for 6 minutes at room temperature while shaking. Kinase reactions were stopped by removal of reaction mixture, then wells were washed with wash buffer comprising 3% Bovine Serum Albumin and 0.1% Tween 20 in Phosphate Buffered Saline (PBS). Phosphorylated tyrosine residues were detected by adding 0.2 μg/ml anti-phosphotyrosine antibody (Oncogene Ab-4; 50 μL/well) coupled to Horse Radish Peroxidase (HRP) for 25 minutes while shaking at room temperature. The antibody was removed, and plates were washed (3% BSA and 0.1% Tween 20 in PBS). HRP substrate 3,3′,5,5′-tetramethylbenzidene (SureBlueTMB, Kirkegaard & Perry Labs) was added (50 μL per well) and incubated for 10-20 minutes while shaking at room temperature. The TMB reaction was stopped with the addition of 50 μL stop solution (0.09 N H2SO4). The signal was quantified by measuring absorbance at 450 nm. IC50 values were determined for test compounds using Microsoft Excel.

[2] = target: ErbB1 (Homo sapiens (Human), UniProt P00533); test: ELISA-based erbB kinase assay (ErbB1); format: biochemical; conditions: GST-erbB1 cytoplasmic fusion protein, 20 uM ATP, poly-Glu-Tyr substrate
Source text: as §1, §2

[3] = Aqueous solubility; format: physicochemical
[4] = target: ErbB2 (Homo sapiens (Human), UniProt P04626); test: ELISA-based erbB kinase assay (ErbB2); format: biochemical; conditions: GST-erbB2 cytoplasmic fusion protein, 20 uM ATP, poly-Glu-Tyr substrate
Source text: as §1, §2

ErbB4, sequence (Q15303 26-1308 limits assumed): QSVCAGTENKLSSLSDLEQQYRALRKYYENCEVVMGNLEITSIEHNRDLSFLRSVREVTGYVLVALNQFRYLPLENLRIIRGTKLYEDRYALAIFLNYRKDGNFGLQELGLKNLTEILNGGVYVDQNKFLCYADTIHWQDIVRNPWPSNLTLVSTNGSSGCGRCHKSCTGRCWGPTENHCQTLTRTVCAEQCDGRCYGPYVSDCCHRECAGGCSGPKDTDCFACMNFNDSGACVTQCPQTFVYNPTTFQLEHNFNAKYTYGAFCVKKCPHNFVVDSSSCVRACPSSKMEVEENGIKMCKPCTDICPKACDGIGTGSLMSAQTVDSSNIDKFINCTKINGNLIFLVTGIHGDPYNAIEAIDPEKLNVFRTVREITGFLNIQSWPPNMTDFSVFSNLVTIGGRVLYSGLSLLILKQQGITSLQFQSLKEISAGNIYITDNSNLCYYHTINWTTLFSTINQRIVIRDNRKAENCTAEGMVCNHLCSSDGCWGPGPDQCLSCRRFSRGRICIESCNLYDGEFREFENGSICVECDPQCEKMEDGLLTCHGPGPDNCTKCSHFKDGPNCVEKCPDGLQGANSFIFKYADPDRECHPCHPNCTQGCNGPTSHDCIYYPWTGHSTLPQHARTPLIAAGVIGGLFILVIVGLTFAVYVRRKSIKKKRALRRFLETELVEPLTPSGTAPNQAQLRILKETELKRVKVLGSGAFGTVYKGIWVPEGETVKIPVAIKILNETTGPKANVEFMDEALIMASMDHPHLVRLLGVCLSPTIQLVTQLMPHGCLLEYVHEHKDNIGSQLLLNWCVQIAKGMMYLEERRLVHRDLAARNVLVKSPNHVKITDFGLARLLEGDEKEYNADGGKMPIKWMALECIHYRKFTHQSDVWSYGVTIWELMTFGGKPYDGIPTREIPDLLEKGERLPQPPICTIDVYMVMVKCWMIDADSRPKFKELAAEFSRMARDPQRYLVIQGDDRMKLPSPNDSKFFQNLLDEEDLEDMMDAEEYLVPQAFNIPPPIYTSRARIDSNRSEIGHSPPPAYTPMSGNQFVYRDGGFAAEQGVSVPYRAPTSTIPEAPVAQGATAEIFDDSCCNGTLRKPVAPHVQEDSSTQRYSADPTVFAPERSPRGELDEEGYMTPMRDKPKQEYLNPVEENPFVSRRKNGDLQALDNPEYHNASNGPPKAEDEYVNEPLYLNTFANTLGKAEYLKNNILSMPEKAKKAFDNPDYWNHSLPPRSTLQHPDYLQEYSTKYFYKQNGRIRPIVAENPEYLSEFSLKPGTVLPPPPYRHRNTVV
ErbB1, sequence (P00533 668-1210 limits assumed): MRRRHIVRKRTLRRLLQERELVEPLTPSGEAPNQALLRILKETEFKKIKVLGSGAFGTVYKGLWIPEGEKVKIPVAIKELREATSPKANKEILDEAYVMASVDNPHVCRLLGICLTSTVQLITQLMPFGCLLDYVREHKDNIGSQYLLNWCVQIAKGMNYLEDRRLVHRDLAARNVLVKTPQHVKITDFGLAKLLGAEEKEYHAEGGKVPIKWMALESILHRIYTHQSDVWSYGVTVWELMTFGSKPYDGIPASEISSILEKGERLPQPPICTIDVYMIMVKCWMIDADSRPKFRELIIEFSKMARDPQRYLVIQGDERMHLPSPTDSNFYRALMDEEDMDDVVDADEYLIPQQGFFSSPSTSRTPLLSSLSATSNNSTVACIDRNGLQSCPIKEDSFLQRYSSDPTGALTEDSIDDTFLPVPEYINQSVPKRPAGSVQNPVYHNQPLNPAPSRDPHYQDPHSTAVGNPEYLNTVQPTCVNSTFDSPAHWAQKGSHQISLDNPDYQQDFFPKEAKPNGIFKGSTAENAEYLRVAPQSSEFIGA
ErbB2, sequence (P04626 675-1255 limits assumed): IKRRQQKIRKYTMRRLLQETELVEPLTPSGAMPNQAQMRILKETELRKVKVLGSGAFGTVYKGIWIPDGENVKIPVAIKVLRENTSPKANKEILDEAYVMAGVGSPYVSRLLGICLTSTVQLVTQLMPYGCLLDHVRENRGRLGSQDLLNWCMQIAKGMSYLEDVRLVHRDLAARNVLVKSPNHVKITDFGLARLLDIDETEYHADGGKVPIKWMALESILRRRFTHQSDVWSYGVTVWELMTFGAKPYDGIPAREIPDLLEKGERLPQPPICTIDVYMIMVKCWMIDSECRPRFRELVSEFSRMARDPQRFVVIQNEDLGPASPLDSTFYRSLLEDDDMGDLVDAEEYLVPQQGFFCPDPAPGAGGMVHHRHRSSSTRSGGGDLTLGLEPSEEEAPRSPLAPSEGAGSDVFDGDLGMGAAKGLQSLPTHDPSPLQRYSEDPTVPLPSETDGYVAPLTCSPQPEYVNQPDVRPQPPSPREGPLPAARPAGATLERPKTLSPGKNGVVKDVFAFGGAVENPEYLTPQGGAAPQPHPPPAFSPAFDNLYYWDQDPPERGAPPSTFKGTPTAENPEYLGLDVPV

SMILES | IC50 [1] [nM] | IC50 [2] [nM] | solubility ([3]; aqueous medium, pH 6.3, aqueous buffer) [µg/mL] | change of aqueous solubility with pH ([3]; at lower pHs (than 6.3)) | IC50 [4] [nM]
O=C(/C=C/CN1CCCCC1)Nc1cc2c(Nc3ccc(F)c(Cl)c3)ncnc2cc1OCCF [Example No. 1, 4-Piperidin-1-yl-but-2-enoic acid [4-(3-chloro-4-fluoro-phenylamino)-7-(2-fluoro-ethoxy)-quinazolin-6-yl]-amide] | 77.5 | 6.44 | – | – | –
COc1cc2ncnc(Nc3ccc(F)c(Cl)c3)c2cc1NC(=O)/C=C/CN1CCCCC1 [Example No. 2, 4-Piperidin-1-yl-but-2-enoic acid [4-(3-chloro-4-fluoro-phenylamino)-7-methoxy-quinazolin-6-yl]-amide] | – | – | ~10 (≈ 21.3 µM) | increases | –
O=C(/C=C/CN1CCCCC1)Nc1cc2c(Nc3ccc(F)c(Cl)c3)ncnc2cc1OCC(F)F [Example No. 6, 4-Piperidine-1-yl-but-2-enoic acid [4-(3-chloro-4-fluoro-phenylamino)-7-(2,2-difluoro-ethoxy)-quinazolin-6-yl]-amide] | 154 | 9.87 | – | – | 244
O=C(/C=C/CN1CCCCC1)Nc1cc2c(Nc3ccc(F)c(Cl)c3)ncnc2cc1OCCCN1CCOCC1 [Example No. 7, 4-Piperidin-1-yl-but-2-enoic acid [4-(3-chloro-4-fluoro-phenylamino)-7-(3-morpholin-4-yl-propoxy)-quinazolin-6-yl]-amide] | 61.5 | 11.3 | – | – | –
COc1cc2ncnc(Nc3ccc(F)c(Cl)c3)c2cc1NC(=O)/C=C/CN1CCCC(F)C1 (centres unmarked) [Example No. 8, 4-(3-Fluoro-piperidin-1-yl)-but-2-enoic acid [4-(3-chloro-4-fluoro-phenylamino)-7-methoxy-Quinazolin-6-yl]-amide] | 234 | 45.3 | – | – | 212
COc1cc2ncnc(Nc3ccc(F)c(Cl)c3)c2cc1NC(=O)/C=C/CN1CCC(F)CC1 [Example No. 9, 4-(4-Fluoro-piperidin-1-yl)-but-2-enoic acid [4-(3-chloro-4-fluoro-phenylamino)-7-methoxy-quinazolin-6-yl]-amide] | 147 | – | – | – | 247
COc1cc2ncnc(Nc3ccc(F)c(Cl)c3)c2cc1NC(=O)/C=C/CN1CCCCCC1 [Example No. 10, 4-Azepan-1-yl-but-2-enoic acid [4-(3-chloro-4-fluoro-phenylamino)-7-methoxy-quinazolin-6-yl]-amide] | 41.3 | 12.1 | – | – | 86
